Laboratory results as given in patent US20240294531A1, “COVALENT HETEROCYCLES AND USES THEREOF” (Kumquat Biosciences Inc., priority 2022, published 2024).

Legend:
[1] = target: BTK wildtype protein (Homo sapiens (Human), UniProt Q06187); assay: BTK wildtype HTRF displacement assay; type: binding; conditions: 1-hour incubation; read-out: BTK (wt) IC50
Summary of the method: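 Tracer-displacement HTRF format: compound and tracer 239 compete at the BTK active site, detected via anti-GST-Tb on GST-tagged full-length enzyme. One-hour room-temperature incubation; compounds dosed at six four-fold steps down from 5 μM. Percent inhibition versus DMSO gives IC50 by constrained four-parameter logistic fit.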

[2] = target: BTK C481S protein (Homo sapiens (Human), UniProt Q06187, C481S); assay: BTK C481S HTRF displacement assay; type: binding; conditions: 1-hour incubation
Summary of the method: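 Tracer displacement read by HTRF after 1 hour at room temperature: GST-BTK C481S 2-659, 50 nM tracer 239 (Kd 54 nM), anti-GST antibody, compound in six four-fold doses from 5 μM. Percent inhibition versus DMSO fitted (bottom 0, top 100) for IC50, converted to KI via Cheng-Prusoff.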

BTK wildtype protein, sequence (Q06187 2-659): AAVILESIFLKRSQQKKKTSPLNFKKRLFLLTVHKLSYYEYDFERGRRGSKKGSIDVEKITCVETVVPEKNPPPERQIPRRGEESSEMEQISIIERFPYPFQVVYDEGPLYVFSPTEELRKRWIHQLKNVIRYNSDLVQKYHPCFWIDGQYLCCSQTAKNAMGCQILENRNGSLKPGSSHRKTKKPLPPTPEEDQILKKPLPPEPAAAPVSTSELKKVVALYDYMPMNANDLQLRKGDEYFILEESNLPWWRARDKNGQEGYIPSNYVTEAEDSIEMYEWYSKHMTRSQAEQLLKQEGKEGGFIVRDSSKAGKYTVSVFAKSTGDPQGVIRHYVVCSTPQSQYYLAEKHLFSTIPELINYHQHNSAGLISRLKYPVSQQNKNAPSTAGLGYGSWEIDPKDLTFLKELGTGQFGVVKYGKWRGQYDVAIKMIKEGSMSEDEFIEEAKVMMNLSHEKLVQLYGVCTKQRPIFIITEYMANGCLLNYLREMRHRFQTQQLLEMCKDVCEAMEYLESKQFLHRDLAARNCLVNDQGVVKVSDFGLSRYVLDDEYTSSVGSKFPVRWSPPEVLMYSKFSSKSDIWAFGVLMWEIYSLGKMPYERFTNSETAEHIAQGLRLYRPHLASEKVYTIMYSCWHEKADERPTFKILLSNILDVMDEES
BTK C481S protein, sequence (Q06187 2-659 C481S): as the sequence (Q06187 2-659) above, with C480S counted along it

Row | Structure (SMILES) | IC50 [1] [nM] | IC50 [2] [nM]
1 | CN(C(=O)n1cnc(Cl)n1)C1CCC(n2nc(-c3ccc(Oc4ccccc4)cc3)c3c(N)ncnc32)CC1 (centres unmarked) [Compound 299, N-(4-(4-amino-3-(4-phenoxyphenyl)-1H-pyrazolo[3,4-d]pyrimidin-1-yl)cyclohexyl)-3-chloro-N-methyl-1H-1,2,4-triazole-1-carboxamide] | ≤ 1000 | ≤ 1000
2 | CCN(C(=O)n1cncn1)C1CCC(n2nc(-c3ccc(Oc4ccccc4)cc3)c3c(N)ncnc32)C1 (centres unmarked) [Compound 179, N-(3-(4-amino-3-(4-phenoxyphenyl)-1H-pyrazolo[3,4-d]pyrimidin-1-yl)cyclopentyl)-N-ethyl-1H-1,2,4-triazole-1-carboxamide] | ≤ 1000 | ≤ 1000
3 | CCN(CC1CCNc2c(C(N)=O)c(-c3ccc(Oc4ccccc4)cc3)nn21)C(=O)n1cncn1 (centres unmarked) [Compound 120, 7-((N-ethyl-1H-1,2,4-triazole-1-carboxamido)methyl)-2-(4-phenoxyphenyl)-4,5,6,7-tetrahydro-pyrazolo[1,5-a]pyrimidine-3-carboxamide] | > 1000 | > 1000
4 | COc1ccc(F)cc1C(=O)NCc1ccc(-c2nn([C@@H]3CCC[C@H](N(C)C(=O)n4cncn4)C3)c(N)c2C(N)=O)cc1 (relative stereo) [Compound 284, N-((1S,3R)-3-(5-amino-4-carbamoyl-3-(4-((5-fluoro-2-methoxy-benzamido)methyl)phenyl)-1H-pyrazol-1-yl)cyclohexyl)-N-methyl-1H-1,2,4-triazole-1-carboxamide] | ≤ 1000 | ≤ 1000
5 | COc1ccc(F)cc1C(=O)NCc1ccc(-c2nn(C(CCN(C)C(=O)n3cncn3)Cc3ccccc3)c3ncnc(N)c23)cc1 (centres unmarked) [Compound 195, N-(3-(4-amino-3-(4-((5-fluoro-2-methoxybenzamido)methyl)phenyl)-1H-pyrazolo[3,4-d]pyrimidin-1-yl)-4-phenylbutyl)-N-methyl-1H-1,2,4-triazole-1-carboxamide] | > 1000 | > 1000
6 | COc1ccc(C)cc1C(=O)NCc1ccc(-c2nn(CC3CCCCN3C(=O)n3cncn3)c3ncnc(N)c23)cc1 (centres unmarked) [Compound 217, N-(4-(1-((1-(1H-1,2,4-triazole-1-carbonyl)piperidin-2-yl)methyl)-4-amino-1H-pyrazolo[3,4-d]pyrimidin-3-yl)benzyl)-2-methoxy-5-methylbenzamide] | ≤ 1000 | > 1000
7 | Cc1[nH]c2c(C(N)=O)cc(F)c(N3CCCC4(CCN4C(=O)n4cncn4)C3)c2c1C (centres unmarked) [Compound 171, 4-(1-(1H-1,2,4-triazole-1-carbonyl)-1,6-diazaspiro[3.5]nonan-6-yl)-5-fluoro-2,3-dimethyl-1H-indole-7-carboxamide] | ≤ 1000 | ≤ 1000
8 | Cc1[nH]c2c(C(N)=O)cc(F)c(N3CCC4(CC3)CCN4C(=O)n3cncn3)c2c1C [Compound 142, 4-(1-(1H-1,2,4-triazole-1-carbonyl)-1,7-diazaspiro[3.5]nonan-7-yl)-5-fluoro-2,3-dimethyl-1H-indole-7-carboxamide] | ≤ 1000 | ≤ 1000
9 | COc1ccc(C)cc1C(=O)NCc1ccc(-c2nn(CC3CCCCN3C(=O)n3cnnn3)c3ncnc(N)c23)cc1 (centres unmarked) [Compound 158, N-(4-(1-((1-(1H-tetrazole-1-carbonyl)piperidin-2-yl)methyl)-4-amino-1H-pyrazolo[3,4-d]pyrimidin-3-yl)benzyl)-2-methoxy-5-methylbenzamide] | ≤ 1000 | > 1000
10 | CN(CCC1CCNc2c(-c3ccc(Oc4ccccc4)cc3)c(C(N)=O)nn21)C(=O)n1cncn1 (centres unmarked) [Compound 167, 7-(2-(N-methyl-1H-1,2,4-triazole-1-carboxamido)ethyl)-3-(4-phenoxy-phenyl)-4,5,6,7-tetrahydro-pyrazolo[1,5-a]pyrimidine-2-carboxamide] | > 1000 | > 1000
11 | NC(=O)c1c(-c2ccc(Oc3ccccc3)cc2)nn2c1NCC1CCN(C(=O)n3cncn3)CC12 (centres unmarked) [Compound 288, 2-(4-phenoxyphenyl)-8-(1H-1,2,4-triazole-1-carbonyl)-4,5,5a,6,7,8,9,9a-octahydropyrazolo[1,5-a]pyrido [4,3-e]pyrimidine-3-carboxamide] | ≤ 1000 | ≤ 1000
12 | NC(=O)c1c(-c2ccc(Oc3ccccc3)cc2)nn2c1NCCC2C1CCCN(C(=O)n2cncn2)C1 (centres unmarked) [Compound 207, 7-(1-(1H-1,2,4-triazole-1-carbonyl)piperidin-3-yl)-2-(4-phenoxy-phenyl)-4,5,6,7-tetrahydro-pyrazolo[1,5-a]pyrimidine-3-carboxamide] | ≤ 1000 | ≤ 1000
13 | CN(C(=O)n1cncn1)[C@@H]1CCCC[C@H](n2nc(-c3ccc(Oc4ccccc4)cc3)c(C(N)=O)c2N)C1 [Compound 182, N-((1R,3S)-3-(5-amino-4-carbamoyl-3-(4-phenoxyphenyl)-1H-pyrazol-1-yl)cycloheptyl)-N-methyl-1H-1,2,4-triazole-1-carboxamide] | ≤ 1000 | ≤ 1000

Next, values leading:

Row | IC50 [1] [nM] | IC50 [2] [nM] | Structure (SMILES)
14 | > 1000 | > 1000 | COc1ccc(F)cc1C(=O)NCc1ccc(-c2nn(C(C)CC3CCCN3C(=O)n3cncn3)c3ncnc(N)c23)cc1 (centres unmarked) [Compound 279, N-(4-(1-(1-(1-(1H-1,2,4-triazole-1-carbonyl)pyrrolidin-2-yl)propan-2-yl)-4-amino-1H-pyrazolo[3,4-d]pyrimidin-3-yl)benzyl)-5-fluoro-2-methoxybenzamide]
15 | > 1000 | > 1000 | COc1ccc(F)cc1C(=O)NCc1ccc(-c2nn(C[C@H](C3CC3)N(C)C(=O)n3cncn3)c3ncnc(N)c23)cc1 [Compound 132, (S)-N-(2-(4-amino-3-(4-((5-fluoro-2-methoxybenzamido)methyl)phenyl)-1H-pyrazolo[3,4-d]pyrimidin-1-yl)-1-cyclopropylethyl)-N-methyl-1H-1,2,4-triazole-1-carboxamide]
16 | ≤ 1000 | ≤ 1000 | COc1ccc(F)cc1C(=O)NCc1ccc(-c2nn(C[C@@H](C)N(C)C(=O)n3cncn3)c3ncnc(N)c23)cc1 [Compound 125, (R)-N-(1-(4-amino-3-(4-((5-fluoro-2-methoxybenzamido)methyl)phenyl)-1H-pyrazolo[3,4-d]pyrimidin-1-yl)propan-2-yl)-N-methyl-1H-1,2,4-triazole-1-carboxamide]
17 | ≤ 1000 | ≤ 1000 | COc1ccc(F)cc1C(=O)NCc1ccc(-c2nn(C[C@H]3CCC[C@H]3CN(C)C(=O)n3cncn3)c3ncnc(N)c23)cc1 [Compound 307, N-(((1R,2S)-2-((4-amino-3-(4-((5-fluoro-2-methoxybenzamido)methyl)phenyl)-1H-pyrazolo [3,4-d]pyrimidin-1-yl)methyl)cyclopentyl)methyl)-N-methyl-1H-1,2,4-triazole-1-carboxamide]
18 | > 1000 | > 1000 | COc1ccc(F)cc1C(=O)NCc1ccc(-c2nn(C[C@@H]3C[C@@H](O)CN3C(=O)n3cncn3)c3ncnc(N)c23)cc1 [Compound 224, N-(4-(4-amino-1-(((2S,4R)-4-hydroxy-1-(1H-1,2,4-triazole-1-carbonyl)pyrrolidin-2-yl)methyl)-1H-pyrazolo[3,4-d]pyrimidin-3-yl)benzyl)-5-fluoro-2-methoxybenzamide]
19 | > 1000 | > 1000 | COc1ccc(F)cc1C(=O)NCc1ccc(-c2nn(C(Cc3ccncc3)CN(C)C(=O)n3cncn3)c3ncnc(N)c23)cc1 (centres unmarked) [Compound 281]
20 | ≤ 1000 | ≤ 1000 | COc1ccc(F)cc1C(=O)NCc1ccc(-c2nn(C[C@H]3CCCC[C@H]3CN(C)C(=O)n3cncn3)c3ncnc(N)c23)cc1 [Compound 173, N-(((1R,2S)-2-((4-amino-3-(4-((5-fluoro-2-methoxybenzamido)methyl)phenyl)-1H-pyrazolo[3,4-d]pyrimidin-1-yl)methyl)cyclohexyl)methyl)-N-methyl-1H-1,2,4-triazole-1-carboxamide]
21 | > 1000 | > 1000 | COc1ccc(F)cc1C(=O)NCc1ccc(-c2nn(CC3CCCCCN3C(=O)n3cncn3)c3ncnc(N)c23)cc1 (centres unmarked) [Compound 174, N-(4-(1-((1-(1H-1,2,4-triazole-1-carbonyl)azepan-2-yl)methyl)-4-amino-1H-pyrazolo[3,4-d]pyrimidin-3-yl)benzyl)-5-fluoro-2-methoxybenzamide]
22 | ≤ 1000 | > 1000 | COc1ccc(F)cc1C(=O)NCc1ccc(-c2nn(C(CCN(C)C(=O)n3cncn3)C3CC3)c3ncnc(N)c23)cc1 (centres unmarked) [Compound 161]
23 | > 1000 | > 1000 | COc1ccc(F)cc1C(=O)NCc1ccc(-c2nn(C(CC(F)F)CN(C)C(=O)n3cncn3)c3ncnc(N)c23)cc1 (centres unmarked) [Compound 257, N-(2-(4-amino-3-(4-((5-fluoro-2-methoxybenzamido)methyl)phenyl)-1H-pyrazolo[3,4-d]pyrimidin-1-yl)-4,4-difluorobutyl)-N-methyl-1H-1,2,4-triazole-1-carboxamide]
24 | ≤ 1000 | ≤ 1000 | COc1ccc(F)cc1C(=O)NCc1ccc(-c2nn(C[C@H]3CCCN3C(=O)n3cncn3)c3ncnc(N)c23)cc1 [Compound 292, (R)-N-(4-(1-((1-(1H-1,2,4-triazole-1-carbonyl)pyrrolidin-2-yl)methyl)-4-amino-1H-pyrazolo[3,4-d]pyrimidin-3-yl)benzyl)-5-fluoro-2-methoxybenzamide]
25 | > 1000 | > 1000 | COCCC(CN(C)C(=O)n1cncn1)n1nc(-c2ccc(CNC(=O)c3cc(F)ccc3OC)cc2)c2c(N)ncnc21 (centres unmarked) [Compound 291, N-(2-(4-amino-3-(4-((5-fluoro-2-methoxybenzamido)methyl)phenyl)-1H-pyrazolo[3,4-d]pyrimidin-1-yl)-4-methoxybutyl)-N-methyl-1H-1,2,4-triazole-1-carboxamide]
